The values that follow come from patent US11517016B2, “Agrochemical combinations” (UPL LTD, priority 2017, dated 2022).

One test has as its system fruit borer. Put plainly: Trials of Chlorantraniliprole and Orthosilicic acid on controlling fruit borer. The class given is in vivo. To be noted: for Percent fruit Borer control Mean: Mean of A-10, B-10, C-10. How it is done:
Trials were conducted to test the efficacy of the combination of Chlorantraniliprole and Orthosilicic acid on controlling fruit borer at different dosages.

Another test has as its system Early Blight. Put plainly: Trials of Chlorantraniliprole+Mancozeb+Orthosilicic acid on Early Blight control. The class given is in vivo. How it is done: Trials were conducted to test the efficacy of the combination of Chlorantraniliprole+Mancozeb+Orthosilicic acid on Early Blight control: […]

For the compound `CNC(=O)c1cc(Cl)cc(C)c1NC(=O)c1cc(Br)nn1-c1ncccc1Cl` [Chlorantraniliprole], in the test on fruit borer (dose 150 gm-ml/ha), the “Percent fruit Borer control A-10” value is listed as 73.8%, the “Percent fruit Borer control B-10” value worked out at 85.4%, the “Percent fruit Borer control C-10” value came out at 87.8% and the “Percent fruit Borer control Mean” value amounted to 82.33%. Further, in the test on Early Blight (T-5, dose 150 gm-ml/ha), the “Per Cent Early Blight Control (PDC) A-10” value is on record as 04.52%, the “Per Cent Early Blight Control (PDC) B-10” value is listed as 02.39%, the “Per Cent Early Blight Control (PDC) C-10” value is reported as 02.76% and the “Per Cent Early Blight Control (PDC) Mean” value was determined as 3.22%.

Mancozeb: in the test with Early Blight (T-6, dose 2000 gm-ml/ha), the “Per Cent Early Blight Control (PDC) A-10” value is listed as 72.26%, the “Per Cent Early Blight Control (PDC) B-10” value stood at 77.04%, the “Per Cent Early Blight Control (PDC) C-10” value was determined as 81.17% and the “Per Cent Early Blight Control (PDC) Mean” value came out at 76.82%.

Consider Orthosilicic acid [OSA], for which, in the test with fruit borer (dose 750 gm-ml/ha), the “Percent fruit Borer control A-10” value was determined as 2.1%, the “Percent fruit Borer control B-10” value came out at 3.6%, the “Percent fruit Borer control C-10” value worked out at 4.4% and the “Percent fruit Borer control Mean” value is reported as 3.37%. Also, in the test on Early Blight (T-7, dose 750 gm-ml/ha), the “Per Cent Early Blight Control (PDC) A-10” value is reported as 9.38%, the “Per Cent Early Blight Control (PDC) B-10” value is given as 11.57%, the “Per Cent Early Blight Control (PDC) C-10” value was determined as 13.95% and the “Per Cent Early Blight Control (PDC) Mean” value amounted to 11.63%. Further, in the test with Early Blight (added to Chlorantraniliprole+Mancozeb), the “Effect of addition on effectiveness of the combination of chlorantraniliprole+Mancozeb against Early blight” value is “act as synergist”.
